The results in this text go back to paper PMC4835159 (Journal of Medicinal Chemistry, 2016).

Test [1] concerns Mtb H37Rv. The test can be described thus: Antimycobacterial activity assay (MIC90). It counts as cell-based, Mycobacterium tuberculosis. Also on record: key to MIC90: “N” indicates that compounds did not produce any significant cell death within the tested concentration range. The note with it: triplicate, 0–100 μM, 2 weeks.
Test [2] concerns the target T1, CYP121 (Mycobacterium tuberculosis, UniProt P9WPP7). It is filed as binding.
Test [3] addresses T1, CYP121. The test can be described thus: Native mass spectrometry of CYP121 with ligands. It is filed as binding.
For test [4], the target named is T1, CYP121. The test can be described thus: Single shot UV–vis absorbance assay (Soret band shift, competition with type II inhibitor) on CYP121. It counts as binding. The note with it: for Δλmax (change in wavelength of the Soret band): CYP121 5 μM, vs 1% v/v DMSO-d6 alone (λmax = 416.5 nm), single shot; for shifts in the CYP121 optical spectrum: UV–vis spectroscopy.

Where [5] appears, read: Gibbs free energy of binding to CYP121 divided by number of heavy atoms (ΔG/HA).

Molecules are shown by their SMILES. Converted amounts (≈) assume the structure as drawn. “And” between values parts separate entries of the source, which are not always exact repeats. Identical values can stand only once. Like-named read-outs stand apart in the source and are kept apart here.

T1 sequence (P9WPP7 whole entry): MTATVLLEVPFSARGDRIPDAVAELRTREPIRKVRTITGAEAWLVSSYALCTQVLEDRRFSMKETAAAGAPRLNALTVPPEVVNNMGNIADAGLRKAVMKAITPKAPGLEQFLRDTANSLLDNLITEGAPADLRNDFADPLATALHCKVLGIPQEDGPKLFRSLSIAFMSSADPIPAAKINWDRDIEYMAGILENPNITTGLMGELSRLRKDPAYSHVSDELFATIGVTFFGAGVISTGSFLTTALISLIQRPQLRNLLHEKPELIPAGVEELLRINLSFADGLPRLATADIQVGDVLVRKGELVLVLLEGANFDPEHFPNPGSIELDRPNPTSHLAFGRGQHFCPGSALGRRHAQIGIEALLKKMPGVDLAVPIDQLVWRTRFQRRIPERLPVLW

In the case of `O=C(Nc1[nH]nc(-c2ccc(O)cc2)c1-c1ccc(O)cc1)c1ccncc1` [29c, N-(3,4-Bis(4-hydroxyphenyl)-1H-pyrazol-5-yl)isonicotinamide], the MIC90 entry in test [1] was “N”. The “LE (ligand efficiency)” value in test [2] (setting [5]) is 0.16.

Consider `Nc1[nH]nc(-c2cccc(O)c2)c1-c1ccc(O)cc1` [14b, 3-(5-Amino-4-(4-hydroxyphenyl)-1H-pyrazol-3-yl)phenol], for which the “LE (ligand efficiency)” value in test [2] (setting [5]) amounted to 0.29.

As to `Oc1ccc(Nc2cc(-c3ccc(O)cc3)n[nH]2)cc1` [compound 6, 4-((3-(4-Hydroxyphenyl)-1H-pyrazol-5-yl)amino)phenol], the “LE (ligand efficiency)” value in test [2] (setting [5]) was found to be 0.34. Besides, in test [3] (Protein-Ligand Ratio 1:0.5), the “Monomer (%) of CYP121” value is reported as 11%; the “ligand binding stoichiometry, CYP121 Dimer” value is recorded as 0; the “ligand binding stoichiometry, CYP121 Monomer” value came to 0. Further, in test [3] (Protein-Ligand Ratio 1:1), the “Monomer (%) of CYP121” value was determined as 26%; the “ligand binding stoichiometry, CYP121 Dimer” value was found to be 0; the “ligand binding stoichiometry, CYP121 Monomer” value is reported as 0. Also, in test [3] (Protein-Ligand Ratio 1:25), the “Monomer (%) of CYP121” value is on record as 12%; the “ligand binding stoichiometry, CYP121 Dimer” value worked out at 1; the “ligand binding stoichiometry, CYP121 Monomer” value was 1.

With `Nc1[nH]ncc1-c1cccc(-c2ccc3[nH]ccc3c2)c1` [18g, 4-(3-(1H-Indol-5-yl)phenyl)-1H-pyrazol-5-amine], in test [4], the “Δλmax (change in wavelength of the Soret band)” value was found to be 0 nm.

For `Nc1[nH]ncc1-c1ccc(O)cc1` [compound 4, 4-(5-amino-1H-pyrazol-4-yl)phenol], the “LE (ligand efficiency)” value in test [2] (setting [5]) came to 0.29.

As for `O=C(Nc1[nH]nc(-c2ccc(O)cc2)c1-c1ccc(O)cc1)c1ccccc1` [29a, N-(3,4-Bis(4-hydroxyphenyl)-1H-pyrazol-5-yl)benzamide], the “LE (ligand efficiency)” value in test [2] (setting [5]) came out at 0.18.

On to `Oc1ccc(-c2n[nH]c(NCc3c[nH]cn3)c2-c2ccc(O)cc2)cc1` [26h, 4,4′-(5-(((1H-Imidazol-4-yl)methyl)amino)-1H-pyrazole-3,4-diyl)diphenol], for which the “LE (ligand efficiency)” value in test [2] (setting [5]) is recorded as 0.19. Also, the “Δλmax (type II shift)” value in test [4] (ligand 100 μM, CYP121) was “+1.5 nm”.

As to `Oc1ccc(-c2n[nH]c(NCc3ccc4[nH]ccc4c3)c2-c2ccc(O)cc2)cc1` [26e, 4,4′-(5-(((1H-Indol-5-yl)methyl)amino)-1H-pyrazole-3,4-diyl)diphenol], the “LE (ligand efficiency)” value in test [2] (setting [5]) is listed as 0.19.

For the compound `Nc1cccc(-c2cc(-c3cn[nH]c3N)ccc2OCc2ccccc2)c1` [19b, 4-(3′-Amino-6-(benzyloxy)-[1,1′-biphenyl]-3-yl)-1H-pyrazol-5-amine], the “LE (ligand efficiency)” value in test [2] (setting [5]) came out at 0.23. In addition, the “shifts in the CYP121 optical spectrum” value in test [4] is “type II shifts”.

As for `COc1ccc(-c2cn[nH]c2N)cc1-c1cccc(N)c1` [19c, 4-(3′-Amino-6-methoxy-[1,1′-biphenyl]-3-yl)-1H-pyrazol-5-amine], in test [2] (setting [5]), the “LE (ligand efficiency)” value stood at 0.27. In test [4], the “shifts in the CYP121 optical spectrum” value was “type II shifts”.

For `O=C(Nc1[nH]nc(-c2ccc(O)cc2)c1-c1ccc(O)cc1)c1ccc(O)cc1` [29b, N-(3,4-Bis(4-hydroxyphenyl)-1H-pyrazol-5-yl)-4-hydroxybenzamide], the “LE (ligand efficiency)” value in test [2] (setting [5]) was determined as 0.19.

Take `Oc1ccc(-c2n[nH]c(NCc3ccc(O)c(Br)c3)c2-c2ccc(O)cc2)cc1` [26b, 4,4′-(5-((3-Bromo-4-hydroxybenzyl)amino)-1H-pyrazole-3,4-diyl)diphenol]: the “LE (ligand efficiency)” value in test [2] (setting [5]) was found to be 0.22.

`Oc1ccc(-c2n[nH]c(NCc3ccncc3)c2-c2ccc(O)cc2)cc1` [26g, 4,4′-(5-((Pyridin-4-ylmethyl)amino)-1H-pyrazole-3,4-diyl)diphenol]: the “LE (ligand efficiency)” value in test [2] (setting [5]) was determined as 0.18.

For `Nc1[nH]ncc1-c1cccc(-c2cn[nH]c2)c1` [18i, 4-(3-(1H-Pyrazol-4-yl)phenyl)-1H-pyrazol-5-amine], the “Δλmax (change in wavelength of the Soret band)” value in test [4] stood at 0 nm.

As for `Oc1ccc(-c2n[nH]c(NCc3ccco3)c2-c2ccc(O)cc2)cc1` [26d, 4,4′-(5-((Furan-2-ylmethyl)amino)-1H-pyrazole-3,4-diyl)diphenol], the “LE (ligand efficiency)” value in test [2] (setting [5]) was found to be 0.24.

Regarding `Oc1ccc(Nc2[nH]nc(-c3ccc(O)cc3)c2-c2ccc(O)cc2)cc1` [compound 2, 4,4'-(5-((4-hydroxyphenyl)amino)-1H-pyrazole-3,4-diyl)diphenol], the “LE (ligand efficiency)” value in test [2] (setting [5]) is 0.24 and 0.23.

In the case of `Nc1cccc(-c2cccc(-c3cn[nH]c3N)c2)c1` [19a, 4-(3′-Amino-[1,1′-biphenyl]-3-yl)-1H-pyrazol-5-amine], in test [1], the MIC90 result is given as “N”. Moreover, the “LE (ligand efficiency)” value in test [2] was 0.35. Moreover, in test [3] (Protein-Ligand Ratio 1:0.5), the “Monomer (%) of CYP121” value worked out at 23%; the “ligand binding stoichiometry, CYP121 Dimer” value is on record as 0; the “ligand binding stoichiometry, CYP121 Monomer” value stood at 0. Also, in test [3] (Protein-Ligand Ratio 1:1), the “Monomer (%) of CYP121” value is given as 28%; the “ligand binding stoichiometry, CYP121 Dimer” value is reported as 0; the “ligand binding stoichiometry, CYP121 Monomer” value is given as 0. Moreover, in test [3] (Protein-Ligand Ratio 1:25), the “Monomer (%) of CYP121” value is on record as 33%; the “ligand binding stoichiometry, CYP121 Dimer” value came to 2; the “ligand binding stoichiometry, CYP121 Monomer” value was 1.

`Nc1[nH]ncc1-c1cccc(-c2ccncc2)c1` [18f, 4-(3-(Pyridin-4-yl)phenyl)-1H-pyrazol-5-amine]: the “Δλmax (change in wavelength of the Soret band)” value in test [4] is listed as 1 nm.

Turning to `Nc1cc(-c2ccc(O)cc2)n[nH]1` [compound 3, 4-(5-Amino-1H-pyrazol-3-yl)phenol], the “LE (ligand efficiency)” value in test [2] (setting [5]) came out at 0.30.

In the case of `Nc1[nH]nc(-c2ccc(O)cc2O)c1-c1ccc(O)cc1` [14d, 4-(5-amino-4-(4-hydroxyphenyl)-1H-pyrazol-3-yl)benzene-1,3-diol], the “LE (ligand efficiency)” value in test [2] (setting [5]) is given as 0.24.

On to `Oc1ccc(-c2n[nH]c(NCc3ccsc3)c2-c2ccc(O)cc2)cc1` [26c, 4,4′-(5-((Thiophen-3-ylmethyl)amino)-1H-pyrazole-3,4-diyl)diphenol], for which the “LE (ligand efficiency)” value in test [2] (setting [5]) turned out to be 0.25.

Regarding `Nc1[nH]ncc1-c1cccc(-c2cccnc2)c1` [18e, 4-(3-(Pyridin-3-yl)phenyl)-1H-pyrazol-5-amine], the “Δλmax (change in wavelength of the Soret band)” value in test [4] is on record as 0 nm.

Turning to `Nc1[nH]nc(-c2cccc(F)c2)c1-c1ccc(O)cc1` [14c, 4-(5-Amino-3-(3-fluorophenyl)-1H-pyrazol-4-yl)phenol], the MIC90 result in test [1] is “N”. The “LE (ligand efficiency)” value in test [2] (setting [5]) amounted to 0.25.

Take `NC(=O)c1cc(Cl)ccc1N` [compound 7]: the “LE (ligand efficiency)” value in test [2] (setting [5]) was determined as 0.30.

In general, MIC refers to the lowest concentration found to suppress growth. The compound `CO[C@H]1/C=C/O[C@@]2(C)Oc3c(C)c(O)c4c(O)c(c(/C=N/N5CCN(C)CC5)c(O)c4c3C2=O)NC(=O)/C(C)=C\C=C\[C@H](C)[C@H](O)[C@@H](C)[C@@H](O)[C@@H](C)[C@H](OC(C)=O)[C@@H]1C` [Rifampicin, reference compound] yielded an MIC in test [1] (Mycobacterium tuberculosis, 336 h) of 0.75 µM (≈ 0.617 µg/mL).

For `Oc1ccc(-c2n[nH]c(NCc3cccc4[nH]ncc34)c2-c2ccc(O)cc2)cc1` [26f, 4,4′-(5-(((1H-Indazol-4-yl)methyl)amino)-1H-pyrazole-3,4-diyl)diphenol], the “LE (ligand efficiency)” value in test [2] (setting [5]) was 0.20.

For `Nc1cccc(Cn2cncn2)c1` [compound 8], the “LE (ligand efficiency)” value in test [2] (setting [5]) was determined as 0.29.

As for `Nc1[nH]ncc1-c1cccc(-c2ccc3cc[nH]c3c2)c1` [18h, 4-(3-(1H-Indol-6-yl)phenyl)-1H-pyrazol-5-amine], the “Δλmax (change in wavelength of the Soret band)” value in test [4] stood at 0 nm.

Take `Cc1ccc2cc(N)ccc2n1` [compound 9]: the “LE (ligand efficiency)” value in test [2] (setting [5]) is 0.39.
